Assay results taken from US11512080B2, “CRBN ligands and uses thereof” (Kymera Therapeutics, Inc., priority 2018, dated 2022).

What follows are molecules tested against His-tagged CRBN-DDB1 complex (Homo sapiens (Human), UniProt Q96SW2) (assay: Time-Resolved Fluorescence Resonance Energy Transfer (TR-FRET) assay). Details: competition with Cy5-labeled thalidomide (8 nM), 1 hour at room temperature; read-out: CRBN HTRF IC50.
Type: binding
Protocol: The mixture were incubated at room temperature for 1 hour. […] Quantitative loss of FRET efficiency as a function of compound concentrations was fitted by a four-parameter Logistic Function using GraphPad Prism 7.0 and the IC50 values were reported for each compound.
The compound numbers correspond to the compound numbers in Table 1.

Chain of His-tagged CRBN-DDB1 complex (Q96SW2 whole entry): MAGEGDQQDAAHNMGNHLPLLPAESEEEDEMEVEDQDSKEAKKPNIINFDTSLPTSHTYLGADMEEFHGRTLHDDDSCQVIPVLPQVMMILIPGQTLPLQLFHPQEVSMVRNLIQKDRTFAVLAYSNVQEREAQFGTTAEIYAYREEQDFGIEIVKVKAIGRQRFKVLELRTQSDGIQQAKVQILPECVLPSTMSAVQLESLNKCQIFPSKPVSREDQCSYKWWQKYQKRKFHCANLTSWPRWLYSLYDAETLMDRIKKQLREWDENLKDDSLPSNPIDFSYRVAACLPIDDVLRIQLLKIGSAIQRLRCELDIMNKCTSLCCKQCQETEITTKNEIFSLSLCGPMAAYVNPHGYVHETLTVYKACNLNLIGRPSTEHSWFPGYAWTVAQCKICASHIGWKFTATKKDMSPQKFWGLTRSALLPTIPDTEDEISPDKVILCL
Chain of His-tagged CRBN-DDB1 complex (Q16531 whole entry partner): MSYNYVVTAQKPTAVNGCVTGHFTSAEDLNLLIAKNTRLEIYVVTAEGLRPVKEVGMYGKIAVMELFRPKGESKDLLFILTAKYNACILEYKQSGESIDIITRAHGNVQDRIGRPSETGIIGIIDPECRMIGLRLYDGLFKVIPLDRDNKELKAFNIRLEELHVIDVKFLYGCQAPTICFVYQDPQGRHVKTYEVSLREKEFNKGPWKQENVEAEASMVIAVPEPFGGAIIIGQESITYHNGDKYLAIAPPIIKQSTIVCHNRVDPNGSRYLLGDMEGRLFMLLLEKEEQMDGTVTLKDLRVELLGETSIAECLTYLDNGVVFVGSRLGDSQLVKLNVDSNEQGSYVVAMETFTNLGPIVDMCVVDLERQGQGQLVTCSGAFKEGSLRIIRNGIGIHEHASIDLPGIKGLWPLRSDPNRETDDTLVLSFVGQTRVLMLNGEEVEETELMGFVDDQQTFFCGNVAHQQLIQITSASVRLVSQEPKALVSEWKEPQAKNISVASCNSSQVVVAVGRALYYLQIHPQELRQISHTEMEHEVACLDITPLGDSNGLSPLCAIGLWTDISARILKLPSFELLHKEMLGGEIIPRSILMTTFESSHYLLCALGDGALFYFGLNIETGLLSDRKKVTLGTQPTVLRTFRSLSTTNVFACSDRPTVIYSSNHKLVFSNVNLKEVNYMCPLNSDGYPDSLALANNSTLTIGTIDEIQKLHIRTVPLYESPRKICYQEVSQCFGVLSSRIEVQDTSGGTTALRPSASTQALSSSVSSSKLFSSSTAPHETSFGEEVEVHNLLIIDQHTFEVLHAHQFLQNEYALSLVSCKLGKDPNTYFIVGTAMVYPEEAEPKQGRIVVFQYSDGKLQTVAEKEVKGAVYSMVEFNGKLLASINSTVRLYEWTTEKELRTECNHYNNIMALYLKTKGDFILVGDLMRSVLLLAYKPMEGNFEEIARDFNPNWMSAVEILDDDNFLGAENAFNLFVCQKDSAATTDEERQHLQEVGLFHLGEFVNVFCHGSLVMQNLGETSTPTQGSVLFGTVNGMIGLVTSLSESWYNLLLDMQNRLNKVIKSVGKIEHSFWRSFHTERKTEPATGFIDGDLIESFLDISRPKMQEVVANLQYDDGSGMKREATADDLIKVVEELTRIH

IC50 [µM] | SMILES
> 100 | O=C1CCC(SC2CCCCC2)C(=O)N1 (stereo not drawn) [Compound I-116]
> 100 | Cn1cc2ccccc2c(N2CCC(=O)NC2=O)c1=O [Compound I-146, 1-(2-Methyl-3-oxo-2,3-dihydroisoquinolin-4-yl)dihydropyrimidine-2,4(1H,3H)-dione]
> 100 | Cn1cccc(N2CCC(=O)NC2=O)c1=O [Compound I-143]
> 100 | Cn1ccc(N2CCC(=O)NC2=O)n1 [Compound I-76]
> 100 | Cn1ccnc1SC1CCC(=O)NC1=O (stereo not drawn) [Compound I-73]
> 100 | Cn1nc(C2SC(=N)NC2=O)c2ccccc21 (stereo not drawn) [Compound I-81, 2-Imino-5-(1-methyl-1H-indazol-3-yl)thiazolidin-4-one]
> 100 | O=c1ccn(-c2ccccn2)c(=O)[nH]1 [Compound I-28, 1-(pyridin-2-yl)pyrimidine-2,4(1H,3H)-dione]
> 100 | CN1Cc2ccccc2C(N2CCC(=O)NC2=O)C1=O (stereo not drawn) [Compound I-145, 1-(2-Methyl-3-oxo-1,2,3,4-tetrahydroisoquinolin-4-yl)dihydropyrimidine-2,4(1H,3H)-dione]
> 100 | Cn1c(=O)n(C2SC(=O)NC2=O)c2ccccc21 (stereo not drawn) [Compound I-39]
> 100 | Cn1cc(C2SC(=O)NC2=O)c2ccccc21 (stereo not drawn) [Compound I-71, 5-(1-Methyl-1H-indol-3-yl)thiazolidine-2,4-dione]
> 100 | Cn1c(=O)c(N2CCC(=O)NC2=O)cc2ccccc21 [Compound I-144, 1-(1-Methyl-2-oxo-1,2-dihydroquinolin-3-yl)dihydropyrimidine-2,4(1H,3H)-dione]

Same assay, conditions: read-out: CRBN HTRF IC50

SMILES | IC50 [µM]
O=C1CCC(Sc2nc3ccccc3[nH]2)C(=O)N1 (stereo not drawn) [Compound I-96] | 10 to 100
O=C1CCC(Sc2nc3ccccc3n2C2CC2)C(=O)N1 (stereo not drawn) [Compound I-70, 3-((1-Cyclopropyl-1H-benzo[d]imidazol-2-yl)thio)piperidine-2,6-dione] | 10 to 100
O=C1CCN(Cc2ccccc2)C(=O)N1 [Compound I-24, 1-Benzyl-dihydro-pyrimidine-2,4-dione] | 10 to 100
Cn1c(=O)c(C2SC(=O)NC2=O)cc2ccccc21 (stereo not drawn) [Compound I-118, 5-(1-methyl-2-oxo-1,2-dihydroquinolin-3-yl)thiazolidine-2,4-dione] | 10 to 100
Nc1cc(=O)nc(SC2CCC(=O)NC2=O)[nH]1 (stereo not drawn) [Compound I-113] | 10 to 100
CN1CCN(c2ccc(OC3CCC(=O)NC3=O)cc2)CC1 (stereo not drawn) [Compound I-128] | 10 to 100
O=C1CCC(Sc2nc(=O)cc(-c3ccccc3)[nH]2)C(=O)N1 (stereo not drawn) [Compound I-93] | 10 to 100
CCc1ccc(S(=O)(=O)C2CCC(=O)NC2=O)cc1 (stereo not drawn) [Compound I-65, 3-((4-ethylphenyl)sulfonyl)piperidine-2,6-dione] | 10 to 100
O=C1CCC(Sc2ccccc2C(F)(F)F)C(=O)N1 (stereo not drawn) [Compound I-109] | 10 to 100
O=C1CCC(Sc2ccc(C(=O)O)cn2)C(=O)N1 (stereo not drawn) [Compound I-133, 6-((2,6-Dioxopiperidin-3-yl)thio)nicotinic Acid] | 10 to 100
O=C1CCC(Sc2ccc(F)c(F)c2)C(=O)N1 (stereo not drawn) [Compound I-114] | 10 to 100
O=C1CCC(Sc2cccc(C(=O)O)c2)C(=O)N1 (stereo not drawn) [Compound I-123] | 10 to 100
O=C1CCC(Sc2ccc(C(F)(F)F)cn2)C(=O)N1 (stereo not drawn) [Compound I-98] | 10 to 100
O=C1CCC(Sc2cc(C(F)(F)F)cc(C(F)(F)F)c2)C(=O)N1 (stereo not drawn) [Compound I-92] | 10 to 100
N#Cc1ccccc1SC1CCC(=O)NC1=O (stereo not drawn) [Compound I-117] | 10 to 100
O=C1CCC(Sc2ncccn2)C(=O)N1 (stereo not drawn) [Compound I-83] | 10 to 100
O=C1CCC(Sc2ccccc2)C(=O)N1 (stereo not drawn) [Compound I-4, 3-(phenylthio)piperidine-2,6-dione] | 10 to 100
Cn1nc(N2CCC(=O)NC2=O)cc1-c1ccccc1 [Compound I-88, 1-(1-Methyl-5-phenyl-1H-pyrazol-3-yl)dihydropyrimidine-2,4(1H,3H)-dione] | 10 to 100
CN(C)C(=O)c1ccnc(SC2CCC(=O)NC2=O)c1 (stereo not drawn) [Compound I-132, 2-((2,6-Dioxopiperidin-3-yl)thio)-N,N-dimethylisonicotinamide] | 10 to 100
N#Cc1cccc(SC2CCC(=O)NC2=O)c1 (stereo not drawn) [Compound I-134] | 10 to 100
CC(C)(C)n1c(SC2CCC(=O)NC2=O)nc2ccccc21 (stereo not drawn) [Compound I-63, 3-((1-(tert-Butyl)-1H-benzo[d]imidazol-2-yl)thio)piperidine-2,6-dione] | 10 to 100
Cn1ccc(CN2CCC(=O)NC2=O)n1 [Compound I-106] | 10 to 100
CC(=O)Nc1ccc(SC2CCC(=O)NC2=O)cc1 (stereo not drawn) [Compound I-13, N-[4-(2,6-Dioxo-piperidin-3-ylsulfanyl)-phenyl]-acetamide] | 10 to 100
O=C1CCC(Sc2ccc(C(F)(F)F)cc2)C(=O)N1 (stereo not drawn) [Compound I-16, 3-((4-(trifluoromethyl)phenyl)thio)piperidine-2,6-dione] | 10 to 100
O=C1CCC(Sc2ccc(Cl)cc2)C(=O)N1 (stereo not drawn) [Compound I-15, 3-((4-chlorophenyl)thio)piperidine-2,6-dione] | 10 to 100
O=C1CCC(Sc2ccc(F)cc2)C(=O)N1 (stereo not drawn) [Compound I-7] | 10 to 100

The next lines start with the values.

IC50 [µM] | SMILES
1 to 10 | CN(C)c1ccc(SC2CCC(=O)NC2=O)cc1 (stereo not drawn) [Compound I-85]
1 to 10 | CCCCc1ccc(SC2CCC(=O)NC2=O)cc1 (stereo not drawn) [Compound I-84]
10 to 100 | O=C1CCC(Sc2ccc(CO)cc2)C(=O)N1 (stereo not drawn) [Compound I-112]
1 to 10 | O=C1CCC(Sc2cccc[n+]2[O-])C(=O)N1 (stereo not drawn) [Compound I-110]
10 to 100 | Cc1cc(O)nc(SC2CCC(=O)NC2=O)n1 (stereo not drawn) [Compound I-95, 3-((4-hydroxy-6-methylpyrimidin-2-yl)thio)piperidine-2,6-dione]
1 to 10 | O=C1CCC(Sc2ncccc2C(=O)O)C(=O)N1 (stereo not drawn) [Compound I-126]
10 to 100 | Cc1cc(C)nc(SC2CCC(=O)NC2=O)n1 (stereo not drawn) [Compound I-89]
10 to 100 | N#Cc1ccc(SC2CCC(=O)NC2=O)cc1 (stereo not drawn) [Compound I-67, 4-((2,6-Dioxopiperidin-3-yl)thio)benzonitrile]
10 to 100 | O=C1CCC(Sc2ccc(C(=O)O)cc2)C(=O)N1 (stereo not drawn) [Compound I-10, 4-((2,6-dioxopiperidin-3-yl)thio)benzoic acid]
1 to 10 | O=C1CCC(Sc2ccc(Cl)cn2)C(=O)N1 (stereo not drawn) [Compound I-90]
1 to 10 | O=C1CCC(Sc2ccccc2O)C(=O)N1 (stereo not drawn) [Compound I-74]
10 to 100 | O=C1CCC(Oc2ccccc2)C(=O)N1 (stereo not drawn) [Compound I-103]
1 to 10 | O=C1CCC(Sc2nc3ccc(Cl)cc3[nH]2)C(=O)N1 (stereo not drawn) [Compound I-94]
1 to 10 | O=C1CCC(Sc2cc(-c3nn[nH]n3)ccn2)C(=O)N1 (stereo not drawn) [Compound I-139, 3-((4-(2H-Tetrazol-5-yl)pyridin-2-yl)thio)piperidine-2,6-dione]
10 to 100 | Cc1c(SC2CCC(=O)NC2=O)cccc1C(=O)O (stereo not drawn) [Compound I-137, 3-((2,6-Dioxopiperidin-3-yl)thio)-2-methylbenzoic acid]
1 to 10 | NC(=O)c1ccnc(SC2CCC(=O)NC2=O)c1 (stereo not drawn) [Compound I-130, 2-((2,6-Dioxopiperidin-3-yl)thio)isonicotinamide]
10 to 100 | CN(C)C(=O)c1cccnc1SC1CCC(=O)NC1=O (stereo not drawn) [Compound I-141]
1 to 10 | CCc1ccc(SC2CCC(=O)NC2=O)cc1 (stereo not drawn) [Compound I-17, 3-((4-ethylphenyl)thio)piperidine-2,6-dione]
10 to 100 | O=C1NC(=O)C(N2CC(c3ccccc3)OC2=O)S1 (stereo not drawn) [Compound I-38]
10 to 100 | Cc1ccc(SC2CCC(=O)NC2=O)cc1 (stereo not drawn) [Compound I-66]
1 to 10 | Cc1ccc(SC2CCC(=O)NC2=O)c(C)c1 (stereo not drawn) [Compound I-79]

IC50 [µM] | SMILES
1 to 10 | O=C1CCC(Sc2cccc(Br)c2)C(=O)N1 (stereo not drawn) [Compound I-108, 3-((3-Bromophenyl)thio)piperidine-2,6-dione]
1 to 10 | CC(C)c1ccc(SC2CCC(=O)NC2=O)cc1 (stereo not drawn) [Compound I-68]
10 to 100 | O=c1ccn(-c2ccccc2)c(=O)[nH]1 [Compound I-27, 1-phenylpyrimidine-2,4(1H,3H)-dione]
1 to 10 | O=C1CCC(Sc2cccc(C(=O)O)n2)C(=O)N1 (stereo not drawn) [Compound I-136]
10 to 100 | COc1ccccc1SC1CCC(=O)NC1=O (stereo not drawn) [Compound I-75]
1 to 10 | CCc1cccc(SC2CCC(=O)NC2=O)c1 (stereo not drawn) [Compound I-121, 3-((3-ethylphenyl)thio)piperidine-2,6-dione]
10 to 100 | O=C1CCC(Sc2ccncc2)C(=O)N1 (stereo not drawn) [Compound I-62]
10 to 100 | Cc1occc1SC1CCC(=O)NC1=O (stereo not drawn) [Compound I-80]
10 to 100 | O=C1CCC(Sc2cc(Cl)c(Cl)cc2Cl)C(=O)N1 (stereo not drawn) [Compound I-102]
1 to 10 | NC(=O)c1cccnc1SC1CCC(=O)NC1=O (stereo not drawn) [Compound I-140, 2-((2,6-Dioxopiperidin-3-yl)thio)nicotinamide]
1 to 10 | O=C1CCC(Sc2ccc(Br)cn2)C(=O)N1 (stereo not drawn) [Compound I-104]
1 to 10 | CCN(CC)c1ccc(SC2CCC(=O)NC2=O)cc1 (stereo not drawn) [Compound I-135]
1 to 10 | CC(C)(C)c1ccc(OC2CCC(=O)NC2=O)cc1 (stereo not drawn) [Compound I-115]
1 to 10 | COc1cccc(SC2CCC(=O)NC2=O)c1 (stereo not drawn) [Compound I-87]
1 to 10 | O=C1CCC(Sc2cccc3cccnc23)C(=O)N1 (stereo not drawn) [Compound I-97]
1 to 10 | COCCOCCNC(=O)c1cccnc1SC1CCC(=O)NC1=O (stereo not drawn) [Compound I-142]
1 to 10 | O=C1CCC(Sc2cc(C(=O)O)ccn2)C(=O)N1 (stereo not drawn) [Compound I-111]
1 to 10 | O=C1CCC(Oc2ccc3ccccc3c2)C(=O)N1 (stereo not drawn) [Compound I-119]
1 to 10 | CCCCc1ccc(OC2CCC(=O)NC2=O)cc1 (stereo not drawn) [Compound I-124]
1 to 10 | O=C1CCC(Sc2cc(Cl)ccc2Cl)C(=O)N1 (stereo not drawn) [Compound I-101]
